Measurements taken from PubChem BioAssay (NCI).
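A five-concentration, 48-hour dose response in 96-well plates underlies each endpoint, interpolated linearly between surrounding concentrations. TGI: total growth inhibition.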

What was measured:
Assay in all cases: inhibition of tumour cell growth, NCI panel, 48 h
U251 CNS = system: U251 CNS
786-0 renal = system: 786-0 renal
CCRF-CEM leukemia = system: CCRF-CEM leukemia
OVCAR-4 ovarian = system: OVCAR-4 ovarian
UACC-257 melanoma = system: UACC-257 melanoma
NCI-H226 lung = system: NCI-H226 lung
UACC-62 melanoma = system: UACC-62 melanoma
SK-MEL-5 melanoma = system: SK-MEL-5 melanoma
HCC-2998 colon = system: HCC-2998 colon
A498 renal = system: A498 renal
K-562 leukemia = system: K-562 leukemia
KM12 colon = system: KM12 colon
OVCAR-8 ovarian = system: OVCAR-8 ovarian
HT29 colon = system: HT29 colon
EKVX NSCLC = system: EKVX NSCLC
DU-145 prostate = system: DU-145 prostate
HOP-62 NSCLC = system: HOP-62 NSCLC
HCT-116 colon = system: HCT-116 colon
MCF7 breast = system: MCF7 breast

## O=C(O)CCSCc1ccccc1
U251 CNS
  TGI: > 100 µM
786-0 renal
  TGI: > 100 µM
CCRF-CEM leukemia
  TGI: > 100 µM
OVCAR-4 ovarian
  TGI: > 100 µM
UACC-257 melanoma
  TGI: > 100 µM
NCI-H226 lung
  TGI: > 100 µM
UACC-62 melanoma
  TGI: > 100 µM
SK-MEL-5 melanoma
  TGI: > 100 µM
HCC-2998 colon
  TGI: > 100 µM
A498 renal
  TGI: > 100 µM
K-562 leukemia
  TGI: > 100 µM
KM12 colon
  TGI: > 100 µM
OVCAR-8 ovarian
  TGI: > 100 µM
HT29 colon
  TGI: > 100 µM
EKVX NSCLC
  TGI: > 100 µM
DU-145 prostate
  TGI: > 100 µM
HOP-62 NSCLC
  TGI: > 100 µM
HCT-116 colon
  TGI: > 100 µM
MCF7 breast
  TGI: > 100 µM

## COc1cc(/C=N/n2c(-c3ccccc3)nn(C(C)=O)c2=O)cc(OC)c1OC
U251 CNS
  TGI: > 44.6 µM
786-0 renal
  TGI: > 53.1 µM
CCRF-CEM leukemia
  TGI: > 100 µM
OVCAR-4 ovarian
  TGI: > 100 µM
UACC-257 melanoma
  TGI: > 39.3 µM
NCI-H226 lung
  TGI: > 100 µM
UACC-62 melanoma
  TGI: 31.4 µM
SK-MEL-5 melanoma
  TGI: 6.68 µM
HCC-2998 colon
  TGI: 16.3 µM
A498 renal
  TGI: 23.3 µM
K-562 leukemia
  TGI: > 100 µM
KM12 colon
  TGI: > 59.5 µM
OVCAR-8 ovarian
  TGI: > 82.2 µM
HT29 colon
  TGI: > 44.3 µM
EKVX NSCLC
  TGI: 99.2 µM
DU-145 prostate
  TGI: > 89.1 µM
HOP-62 NSCLC
  TGI: > 100 µM
HCT-116 colon
  TGI: > 100 µM
MCF7 breast
  TGI: > 37.9 µM

## Cn1c(=O)c2c(nc3n2CCCC(=O)N3CC(O)CCl)n(C)c1=O (stereo unspecified)
U251 CNS
  TGI: > 100 µM
786-0 renal
  TGI: > 100 µM
CCRF-CEM leukemia
  TGI: > 100 µM
OVCAR-4 ovarian
  TGI: > 100 µM
UACC-257 melanoma
  TGI: > 100 µM
NCI-H226 lung
  TGI: > 100 µM
UACC-62 melanoma
  TGI: > 100 µM
SK-MEL-5 melanoma
  TGI: > 100 µM
HCC-2998 colon
  TGI: > 100 µM
A498 renal
  TGI: > 100 µM
K-562 leukemia
  TGI: > 100 µM
KM12 colon
  TGI: > 100 µM
OVCAR-8 ovarian
  TGI: > 100 µM
HT29 colon
  TGI: > 100 µM
EKVX NSCLC
  TGI: > 100 µM
DU-145 prostate
  TGI: > 100 µM
HOP-62 NSCLC
  TGI: > 100 µM
HCT-116 colon
  TGI: > 100 µM
MCF7 breast
  TGI: > 100 µM

## COC(=O)C1(C#N)C(C)(C)N=C(c2ccccc2)C12CCCCC2 (stereo unspecified)
U251 CNS
  TGI: > 100 µM
786-0 renal
  TGI: > 100 µM
CCRF-CEM leukemia
  TGI: > 100 µM
OVCAR-4 ovarian
  TGI: > 100 µM
UACC-257 melanoma
  TGI: > 100 µM
UACC-62 melanoma
  TGI: > 100 µM
SK-MEL-5 melanoma
  TGI: > 100 µM
HCC-2998 colon
  TGI: > 100 µM
A498 renal
  TGI: > 100 µM
K-562 leukemia
  TGI: > 100 µM
KM12 colon
  TGI: > 100 µM
OVCAR-8 ovarian
  TGI: > 100 µM
HT29 colon
  TGI: > 100 µM
EKVX NSCLC
  TGI: > 100 µM
DU-145 prostate
  TGI: > 100 µM
HOP-62 NSCLC
  TGI: > 100 µM
HCT-116 colon
  TGI: > 100 µM
MCF7 breast
  TGI: > 100 µM

## CC(=O)OCC1OC(Nn2c(=O)[nH]c3ccccc3c2=O)C(OC(C)=O)C(OC(C)=O)C1OC(C)=O (stereo unspecified)
U251 CNS
  TGI: > 100 µM
786-0 renal
  TGI: > 100 µM
CCRF-CEM leukemia
  TGI: > 100 µM
UACC-257 melanoma
  TGI: > 100 µM
NCI-H226 lung
  TGI: > 100 µM
UACC-62 melanoma
  TGI: > 100 µM
SK-MEL-5 melanoma
  TGI: > 100 µM
HCC-2998 colon
  TGI: 53 µM
A498 renal
  TGI: > 100 µM
K-562 leukemia
  TGI: > 100 µM
KM12 colon
  TGI: > 100 µM
OVCAR-8 ovarian
  TGI: > 100 µM
HT29 colon
  TGI: > 100 µM
EKVX NSCLC
  TGI: > 100 µM
DU-145 prostate
  TGI: > 100 µM
HOP-62 NSCLC
  TGI: > 100 µM
HCT-116 colon
  TGI: > 100 µM
MCF7 breast
  TGI: > 100 µM

## Cc1ccc(S(=O)(=O)Oc2nc3ccccc3nc2OS(=O)(=O)c2ccc(C)cc2)cc1
U251 CNS
  TGI: > 100 µM
786-0 renal
  TGI: > 100 µM
CCRF-CEM leukemia
  TGI: > 100 µM
UACC-257 melanoma
  TGI: > 100 µM
NCI-H226 lung
  TGI: > 100 µM
UACC-62 melanoma
  TGI: > 100 µM
SK-MEL-5 melanoma
  TGI: 56.1 µM
HCC-2998 colon
  TGI: > 100 µM
A498 renal
  TGI: > 100 µM
K-562 leukemia
  TGI: > 100 µM
KM12 colon
  TGI: > 100 µM
OVCAR-8 ovarian
  TGI: > 100 µM
HT29 colon
  TGI: > 100 µM
EKVX NSCLC
  TGI: > 100 µM
DU-145 prostate
  TGI: > 100 µM
HCT-116 colon
  TGI: > 100 µM
MCF7 breast
  TGI: > 100 µM

## NC(=O)NCCCC(NC(=O)OCCCCCCn1ccc(=O)[nH]c1=O)C(=O)O (stereo unspecified)
U251 CNS
  TGI: > 100 µM
786-0 renal
  TGI: > 100 µM
CCRF-CEM leukemia
  TGI: > 100 µM
OVCAR-4 ovarian
  TGI: > 100 µM
UACC-257 melanoma
  TGI: > 100 µM
NCI-H226 lung
  TGI: > 100 µM
UACC-62 melanoma
  TGI: > 100 µM
HCC-2998 colon
  TGI: > 100 µM
K-562 leukemia
  TGI: > 100 µM
KM12 colon
  TGI: > 100 µM
OVCAR-8 ovarian
  TGI: > 100 µM
HT29 colon
  TGI: > 100 µM
EKVX NSCLC
  TGI: > 100 µM
DU-145 prostate
  TGI: > 100 µM
HOP-62 NSCLC
  TGI: > 100 µM
HCT-116 colon
  TGI: > 100 µM
MCF7 breast
  TGI: > 100 µM

## CC(C)[C@H](NC(=O)[C@H](N)Cc1ccc(N(CCCl)CCCl)cc1)C(=O)O
U251 CNS
  TGI: > 100 µM
786-0 renal
  TGI: > 100 µM
CCRF-CEM leukemia
  TGI: > 100 µM
OVCAR-4 ovarian
  TGI: > 100 µM
UACC-257 melanoma
  TGI: > 100 µM
NCI-H226 lung
  TGI: > 100 µM
UACC-62 melanoma
  TGI: > 100 µM
SK-MEL-5 melanoma
  TGI: > 100 µM
HCC-2998 colon
  TGI: > 100 µM
A498 renal
  TGI: > 100 µM
K-562 leukemia
  TGI: > 100 µM
KM12 colon
  TGI: > 100 µM
OVCAR-8 ovarian
  TGI: > 100 µM
HT29 colon
  TGI: > 100 µM
EKVX NSCLC
  TGI: > 100 µM
DU-145 prostate
  TGI: > 100 µM
HOP-62 NSCLC
  TGI: > 100 µM
HCT-116 colon
  TGI: > 100 µM
MCF7 breast
  TGI: > 100 µM

## CCOC(=O)C1(C(=O)OCC)OC(C)=NC1(C(=O)OC)C(=O)OC
U251 CNS
  TGI: > 100 µM
786-0 renal
  TGI: > 100 µM
CCRF-CEM leukemia
  TGI: > 100 µM
OVCAR-4 ovarian
  TGI: > 100 µM
UACC-257 melanoma
  TGI: > 100 µM
NCI-H226 lung
  TGI: > 100 µM
UACC-62 melanoma
  TGI: > 100 µM
SK-MEL-5 melanoma
  TGI: > 100 µM
HCC-2998 colon
  TGI: > 100 µM
A498 renal
  TGI: > 100 µM
K-562 leukemia
  TGI: > 100 µM
KM12 colon
  TGI: > 100 µM
OVCAR-8 ovarian
  TGI: > 100 µM
HT29 colon
  TGI: > 100 µM
EKVX NSCLC
  TGI: > 100 µM
DU-145 prostate
  TGI: > 100 µM
HOP-62 NSCLC
  TGI: > 100 µM
HCT-116 colon
  TGI: > 100 µM
MCF7 breast
  TGI: > 100 µM

## O=c1c2cc3c(=O)n4c(cc(-c5ccccc5)c5cc(Cl)ccc54)nc3cc2nc2cc(-c3ccccc3)c3cc(Cl)ccc3n12
U251 CNS
  TGI: > 100 µM
786-0 renal
  TGI: > 100 µM
CCRF-CEM leukemia
  TGI: > 100 µM
UACC-257 melanoma
  TGI: > 100 µM
NCI-H226 lung
  TGI: > 100 µM
UACC-62 melanoma
  TGI: > 100 µM
SK-MEL-5 melanoma
  TGI: > 100 µM
HCC-2998 colon
  TGI: > 100 µM
A498 renal
  TGI: > 100 µM
K-562 leukemia
  TGI: > 100 µM
KM12 colon
  TGI: > 100 µM
OVCAR-8 ovarian
  TGI: > 100 µM
HT29 colon
  TGI: > 100 µM
EKVX NSCLC
  TGI: > 100 µM
DU-145 prostate
  TGI: > 100 µM
HOP-62 NSCLC
  TGI: > 100 µM
HCT-116 colon
  TGI: > 100 µM
MCF7 breast
  TGI: > 100 µM

## Cc1cccc2c1c(=O)c1c(O)c3c(cc1n2C)OC(C)(C)C=C3
U251 CNS
  TGI: > 10 µM
786-0 renal
  TGI: > 10 µM
CCRF-CEM leukemia
  TGI: > 10 µM
OVCAR-4 ovarian
  TGI: > 10 µM
UACC-257 melanoma
  TGI: > 10 µM
NCI-H226 lung
  TGI: > 10 µM
UACC-62 melanoma
  TGI: > 10 µM
SK-MEL-5 melanoma
  TGI: > 10 µM
HCC-2998 colon
  TGI: > 10 µM
A498 renal
  TGI: > 10 µM
K-562 leukemia
  TGI: > 10 µM
KM12 colon
  TGI: > 10 µM
OVCAR-8 ovarian
  TGI: > 10 µM
HT29 colon
  TGI: > 10 µM
EKVX NSCLC
  TGI: > 10 µM
DU-145 prostate
  TGI: > 10 µM
HOP-62 NSCLC
  TGI: > 10 µM
HCT-116 colon
  TGI: > 10 µM
MCF7 breast
  TGI: > 10 µM

## CC1(C)Cc2nc3c(cc2C(=O)C1C=N/C(C#N)=C(\N)C#N)C(=O)C(C=N/C(C#N)=C(\N)C#N)C(C)(C)C3 (stereo unspecified)
U251 CNS
  TGI: 3.14 µM
786-0 renal
  TGI: 3.47 µM
CCRF-CEM leukemia
  TGI: > 100 µM
OVCAR-4 ovarian
  TGI: > 100 µM
UACC-257 melanoma
  TGI: 6.73 µM
NCI-H226 lung
  TGI: 12.7 µM
UACC-62 melanoma
  TGI: 3.56 µM
SK-MEL-5 melanoma
  TGI: 4.66 µM
HCC-2998 colon
  TGI: 10.3 µM
A498 renal
  TGI: 15.4 µM
K-562 leukemia
  TGI: > 100 µM
KM12 colon
  TGI: 3.38 µM
OVCAR-8 ovarian
  TGI: 8.71 µM
HT29 colon
  TGI: 10.9 µM
EKVX NSCLC
  TGI: 6.01 µM
DU-145 prostate
  TGI: 8.44 µM
HOP-62 NSCLC
  TGI: 6.94 µM
HCT-116 colon
  TGI: 2.96 µM
MCF7 breast
  TGI: 6.23 µM
